Measured values taken from patent publication US8921362B2, “6,7-dialkoxy quinazoline derivatives and methods of treating drug resistant and other tumors” (Natco Pharma Limited, priority 2008, dated 2014).

Experiments:
Test in all cases: KinomeScan
Type in all cases: binding
Conditions in all cases: read-out: % Ctrl @ 10000 nM
FLT4 = target: T1, FLT4 (Homo sapiens, UniProt P35916)
T1 construct: host or cells: T7 phage in E. coli host derived from BL21
Summary of the method: (§1)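 Lysates from phage-infected E. coli (32° C., shaking until lysis) were filtered and exposed to biotin-blocked ligand beads together with test compound. Eluted phage was counted by quantitative PCR.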

ANKK1 = target: T2, ANKK1 (Homo sapiens, UniProt Q8NFD2)
T2 construct: host or cells: E. coli (BL21-derived), T7 phage lysate
Summary of the method: as §1

[1] = target: T3, RPS6KA5(Kin.Dom.-1-N-terminal) (Homo sapiens, UniProt O75582)
T3 construct: RPS6KA5(Kin.Dom.-1-N-terminal); host or cells: E. coli host derived from BL21, T7 phage display
Summary of the method: as §1

ERK2 = target: T4, ERK2 (Homo sapiens, UniProt P28482)
T4 construct: purchased Ambit Biosciences Corp; host or cells: T7 phage in E. coli host derived from BL21
T4 sequence (P28482 whole entry): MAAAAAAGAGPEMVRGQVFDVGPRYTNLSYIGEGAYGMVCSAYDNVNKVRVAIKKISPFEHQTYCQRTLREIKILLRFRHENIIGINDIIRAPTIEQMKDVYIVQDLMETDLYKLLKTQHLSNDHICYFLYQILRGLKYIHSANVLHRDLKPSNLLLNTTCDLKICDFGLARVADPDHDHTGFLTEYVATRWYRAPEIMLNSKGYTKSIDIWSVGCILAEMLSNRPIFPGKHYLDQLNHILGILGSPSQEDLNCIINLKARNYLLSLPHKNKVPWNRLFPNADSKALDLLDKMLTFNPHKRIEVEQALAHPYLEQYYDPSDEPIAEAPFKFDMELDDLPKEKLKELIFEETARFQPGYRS
Summary of the method: as §1

DAPK1 = target: T5, DAPK1 (Homo sapiens, UniProt P53355)
T5 construct: purchased Ambit Biosciences Corp (KinomeScan); host or cells: T7 phage in E. coli host derived from BL21
Summary of the method: as §1

YSK1 = target: T6, YSK1 (Homo sapiens, UniProt O00506)
T6 construct: host or cells: T7 phage grown in an E. coli host derived from BL21
Summary of the method: as §1

PDGFRA = target: T7, PDGFRA (Homo sapiens, UniProt P16234)
T7 construct: host or cells: E. coli host derived from BL21, infected with T7 phage
Summary of the method: as §1

PFTK1 = target: T8, PFTK1 (Homo sapiens, UniProt O94921)
T8 construct: host or cells: E. coli host derived from BL21, infected with T7 phage
T8 sequence (O94921 whole entry): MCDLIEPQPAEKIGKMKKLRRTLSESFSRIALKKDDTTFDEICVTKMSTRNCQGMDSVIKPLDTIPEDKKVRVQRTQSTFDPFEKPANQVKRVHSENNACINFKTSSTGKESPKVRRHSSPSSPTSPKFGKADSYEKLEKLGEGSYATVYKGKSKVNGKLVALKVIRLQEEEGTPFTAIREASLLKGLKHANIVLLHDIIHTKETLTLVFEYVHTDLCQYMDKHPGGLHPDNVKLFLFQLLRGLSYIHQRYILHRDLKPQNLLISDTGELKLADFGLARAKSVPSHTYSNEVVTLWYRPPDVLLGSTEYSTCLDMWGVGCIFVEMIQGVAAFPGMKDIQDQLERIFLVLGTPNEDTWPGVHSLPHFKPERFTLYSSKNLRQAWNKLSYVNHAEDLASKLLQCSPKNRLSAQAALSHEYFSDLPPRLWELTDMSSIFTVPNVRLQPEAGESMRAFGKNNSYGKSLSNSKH
Summary of the method: as §1

BTK = target: T9, BTK (Homo sapiens, UniProt Q06187)
T9 construct: host or cells: E. coli host derived from BL21
T9 sequence (Q06187 whole entry): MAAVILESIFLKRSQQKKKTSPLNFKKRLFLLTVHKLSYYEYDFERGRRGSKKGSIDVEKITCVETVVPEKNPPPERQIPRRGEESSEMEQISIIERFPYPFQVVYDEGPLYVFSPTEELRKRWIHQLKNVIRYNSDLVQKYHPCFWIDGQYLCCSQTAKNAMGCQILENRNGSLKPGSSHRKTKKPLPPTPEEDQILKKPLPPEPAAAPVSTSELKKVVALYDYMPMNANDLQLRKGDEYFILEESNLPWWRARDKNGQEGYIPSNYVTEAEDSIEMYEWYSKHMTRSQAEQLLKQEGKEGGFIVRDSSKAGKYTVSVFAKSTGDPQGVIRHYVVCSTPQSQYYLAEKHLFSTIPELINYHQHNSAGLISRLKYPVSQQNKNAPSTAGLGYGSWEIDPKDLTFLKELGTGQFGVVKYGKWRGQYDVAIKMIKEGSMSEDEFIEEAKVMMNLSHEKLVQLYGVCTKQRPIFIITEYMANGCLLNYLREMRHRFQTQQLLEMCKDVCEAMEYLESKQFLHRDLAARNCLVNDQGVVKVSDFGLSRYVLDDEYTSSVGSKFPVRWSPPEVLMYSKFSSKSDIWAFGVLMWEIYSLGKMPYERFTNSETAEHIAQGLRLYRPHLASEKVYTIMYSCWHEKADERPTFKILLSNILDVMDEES
Summary of the method: as §1

FGFR3(G697C) = target: T10, FGFR3(G697C) (Homo sapiens, UniProt P22607, G697C)
T10 construct: host or cells: T7 phage in E. coli host derived from BL21
Summary of the method: as §1

TIE1 = target: T11, TIE1 (Homo sapiens, UniProt P35590)
T11 construct: host or cells: T7 phage grown in E. coli (BL21-derived)
Summary of the method: as §1

MARK4 = target: T12, MARK4 (Homo sapiens, UniProt Q96L34)
T12 construct: host or cells: E. coli host derived from the BL21 strain, infected with T7 phage
Summary of the method: as §1

IKK-epsilon = target: T13, IKK-epsilon (Homo sapiens, UniProt Q14164)
T13 construct: host or cells: T7 phage grown in E. coli host derived from BL21
Summary of the method: as §1

TLK1 = target: T14, TLK1 (Homo sapiens, UniProt Q9UKI8)
T14 construct: host or cells: E. coli host derived from BL21, T7 phage
Summary of the method: as §1

PIK3CA(E545K) = target: T15, PIK3CA(E545K) (Homo sapiens, UniProt P42336, E545K)
T15 construct: host or cells: E. coli host derived from BL21, infected with T7 phage
T15 sequence (P42336 whole entry E545K): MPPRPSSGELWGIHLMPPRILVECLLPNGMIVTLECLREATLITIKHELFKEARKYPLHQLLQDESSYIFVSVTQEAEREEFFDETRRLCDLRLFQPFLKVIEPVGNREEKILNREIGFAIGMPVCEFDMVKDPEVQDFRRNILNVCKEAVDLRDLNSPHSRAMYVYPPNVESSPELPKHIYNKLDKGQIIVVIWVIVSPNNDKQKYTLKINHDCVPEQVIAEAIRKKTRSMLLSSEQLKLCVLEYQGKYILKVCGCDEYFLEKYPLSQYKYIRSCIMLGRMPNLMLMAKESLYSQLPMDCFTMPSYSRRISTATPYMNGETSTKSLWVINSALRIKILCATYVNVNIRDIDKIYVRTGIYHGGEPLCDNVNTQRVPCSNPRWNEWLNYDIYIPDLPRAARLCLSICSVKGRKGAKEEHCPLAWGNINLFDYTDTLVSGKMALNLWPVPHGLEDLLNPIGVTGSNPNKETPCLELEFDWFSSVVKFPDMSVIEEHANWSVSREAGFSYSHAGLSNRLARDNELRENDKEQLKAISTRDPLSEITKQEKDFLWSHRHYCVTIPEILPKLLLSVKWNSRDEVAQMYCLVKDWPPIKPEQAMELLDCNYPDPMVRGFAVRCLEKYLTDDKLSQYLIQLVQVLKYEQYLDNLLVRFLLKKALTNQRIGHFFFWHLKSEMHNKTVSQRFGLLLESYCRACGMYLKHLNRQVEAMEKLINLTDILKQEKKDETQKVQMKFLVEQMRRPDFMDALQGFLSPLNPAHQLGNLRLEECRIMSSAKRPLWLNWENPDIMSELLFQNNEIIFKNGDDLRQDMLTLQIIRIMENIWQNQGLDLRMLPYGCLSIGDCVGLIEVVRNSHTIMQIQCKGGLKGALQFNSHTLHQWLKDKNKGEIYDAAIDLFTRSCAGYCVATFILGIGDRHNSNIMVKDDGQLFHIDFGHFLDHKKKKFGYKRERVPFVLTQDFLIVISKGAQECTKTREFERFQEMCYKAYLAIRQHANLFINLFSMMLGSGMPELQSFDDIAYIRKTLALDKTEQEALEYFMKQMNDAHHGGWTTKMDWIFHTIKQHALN
Summary of the method: as §1

IKK-alpha = target: T16, IKK-alpha (Homo sapiens, UniProt O15111)
T16 construct: host or cells: T7 phage grown in E. coli host derived from BL21
Summary of the method: as §1

BMX = target: T17, BMX (Homo sapiens, UniProt P51813)
T17 construct: host or cells: E. coli host derived from BL21
T17 sequence (P51813 whole entry): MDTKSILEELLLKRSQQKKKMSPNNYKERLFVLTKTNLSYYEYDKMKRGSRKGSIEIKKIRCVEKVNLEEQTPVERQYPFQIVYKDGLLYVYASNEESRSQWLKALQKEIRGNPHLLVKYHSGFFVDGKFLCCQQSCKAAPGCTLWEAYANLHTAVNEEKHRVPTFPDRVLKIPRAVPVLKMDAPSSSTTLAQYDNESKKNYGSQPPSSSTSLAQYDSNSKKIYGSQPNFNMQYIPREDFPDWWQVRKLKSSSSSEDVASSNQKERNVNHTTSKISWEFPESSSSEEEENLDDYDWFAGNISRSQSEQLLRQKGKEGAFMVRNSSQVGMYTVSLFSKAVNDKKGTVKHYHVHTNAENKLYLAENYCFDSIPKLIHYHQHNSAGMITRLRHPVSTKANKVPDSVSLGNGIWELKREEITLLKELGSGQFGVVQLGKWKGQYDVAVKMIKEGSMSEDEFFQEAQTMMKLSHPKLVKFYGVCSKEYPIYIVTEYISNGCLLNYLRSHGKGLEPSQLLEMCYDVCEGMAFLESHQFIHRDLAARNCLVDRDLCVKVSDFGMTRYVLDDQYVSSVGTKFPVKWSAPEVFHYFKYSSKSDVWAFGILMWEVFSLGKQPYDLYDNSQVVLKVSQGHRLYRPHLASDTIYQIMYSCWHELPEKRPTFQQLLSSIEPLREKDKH
Summary of the method: as §1

KIT(V559D, V654A) = target: T18, KIT(V559D, V654A) (Homo sapiens, UniProt P10721, V559D/V654A)
T18 construct: host or cells: T7 phage grown in E. coli host derived from BL21
Summary of the method: as §1

EPHB4 = target: T19, EPHB4 (Homo sapiens, UniProt P54760)
T19 construct: purchased Ambit Biosciences Corp; host or cells: T7 phage in E. coli host derived from BL21
Summary of the method: as §1

PDPK1 = target: T20, PDPK1 (Homo sapiens, UniProt O15530)
T20 construct: host or cells: E. coli host derived from BL21, infected with T7 phage
Summary of the method: as §1

MERTK = target: T21, MERTK (Homo sapiens, UniProt Q12866)
T21 construct: host or cells: E. coli host derived from the BL21 strain, infected with T7 phage
Summary of the method: as §1

MYLK = target: T22, MYLK (Homo sapiens, UniProt Q15746)
T22 construct: host or cells: T7 phage grown in E. coli host derived from BL21
Summary of the method: as §1

YANK3 = target: T23, YANK3 (Homo sapiens, UniProt Q86UX6)
T23 construct: host or cells: E. coli host derived from BL21, T7 phage
T23 sequence (Q86UX6 whole entry): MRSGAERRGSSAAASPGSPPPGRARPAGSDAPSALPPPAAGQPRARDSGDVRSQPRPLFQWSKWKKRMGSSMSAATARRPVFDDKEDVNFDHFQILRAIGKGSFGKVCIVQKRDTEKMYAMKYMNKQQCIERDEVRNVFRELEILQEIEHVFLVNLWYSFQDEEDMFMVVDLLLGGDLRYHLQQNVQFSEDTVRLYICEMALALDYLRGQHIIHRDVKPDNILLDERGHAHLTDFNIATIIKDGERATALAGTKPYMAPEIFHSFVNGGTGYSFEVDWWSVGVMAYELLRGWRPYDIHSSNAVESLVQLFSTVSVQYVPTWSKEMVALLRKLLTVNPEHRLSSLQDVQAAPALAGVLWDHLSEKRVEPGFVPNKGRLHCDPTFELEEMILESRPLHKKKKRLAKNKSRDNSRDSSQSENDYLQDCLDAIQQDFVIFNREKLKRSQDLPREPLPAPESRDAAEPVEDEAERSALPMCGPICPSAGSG
Summary of the method: as §1

MKNK2 = target: T24, MKNK2 (Homo sapiens, UniProt Q9HBH9)
T24 construct: host or cells: T7 phage grown in E. coli host derived from BL21
Summary of the method: as §1

TGFBR1 = target: T25, TGFBR1 (Homo sapiens, UniProt P36897)
T25 construct: host or cells: T7 phage grown in E. coli (BL21-derived)
Summary of the method: as §1

EPHB3 = target: T26, EPHB3 (Homo sapiens, UniProt P54753)
T26 construct: purchased Ambit Biosciences Corp; host or cells: T7 phage in E. coli host derived from BL21
Summary of the method: as §1

MLCK = target: T27, MLCK (Homo sapiens, UniProt Q32MK0)
T27 construct: host or cells: T7 phage grown in E. coli host derived from BL21
Summary of the method: as §1

CSNK1A1L = target: T28, CSNK1A1L (Homo sapiens, UniProt Q8N752)
T28 construct: host or cells: T7 phage in E. coli host derived from BL21
Summary of the method: as §1

PAK1 = target: T29, PAK1 (Homo sapiens, UniProt Q13153)
T29 construct: host or cells: E. coli host derived from BL21, infected with T7 phage
Summary of the method: as §1

LATS1 = target: T30, LATS1 (Homo sapiens, UniProt O95835)
T30 construct: host or cells: T7 phage grown in E. coli host derived from BL21
T30 sequence (O95835 whole entry): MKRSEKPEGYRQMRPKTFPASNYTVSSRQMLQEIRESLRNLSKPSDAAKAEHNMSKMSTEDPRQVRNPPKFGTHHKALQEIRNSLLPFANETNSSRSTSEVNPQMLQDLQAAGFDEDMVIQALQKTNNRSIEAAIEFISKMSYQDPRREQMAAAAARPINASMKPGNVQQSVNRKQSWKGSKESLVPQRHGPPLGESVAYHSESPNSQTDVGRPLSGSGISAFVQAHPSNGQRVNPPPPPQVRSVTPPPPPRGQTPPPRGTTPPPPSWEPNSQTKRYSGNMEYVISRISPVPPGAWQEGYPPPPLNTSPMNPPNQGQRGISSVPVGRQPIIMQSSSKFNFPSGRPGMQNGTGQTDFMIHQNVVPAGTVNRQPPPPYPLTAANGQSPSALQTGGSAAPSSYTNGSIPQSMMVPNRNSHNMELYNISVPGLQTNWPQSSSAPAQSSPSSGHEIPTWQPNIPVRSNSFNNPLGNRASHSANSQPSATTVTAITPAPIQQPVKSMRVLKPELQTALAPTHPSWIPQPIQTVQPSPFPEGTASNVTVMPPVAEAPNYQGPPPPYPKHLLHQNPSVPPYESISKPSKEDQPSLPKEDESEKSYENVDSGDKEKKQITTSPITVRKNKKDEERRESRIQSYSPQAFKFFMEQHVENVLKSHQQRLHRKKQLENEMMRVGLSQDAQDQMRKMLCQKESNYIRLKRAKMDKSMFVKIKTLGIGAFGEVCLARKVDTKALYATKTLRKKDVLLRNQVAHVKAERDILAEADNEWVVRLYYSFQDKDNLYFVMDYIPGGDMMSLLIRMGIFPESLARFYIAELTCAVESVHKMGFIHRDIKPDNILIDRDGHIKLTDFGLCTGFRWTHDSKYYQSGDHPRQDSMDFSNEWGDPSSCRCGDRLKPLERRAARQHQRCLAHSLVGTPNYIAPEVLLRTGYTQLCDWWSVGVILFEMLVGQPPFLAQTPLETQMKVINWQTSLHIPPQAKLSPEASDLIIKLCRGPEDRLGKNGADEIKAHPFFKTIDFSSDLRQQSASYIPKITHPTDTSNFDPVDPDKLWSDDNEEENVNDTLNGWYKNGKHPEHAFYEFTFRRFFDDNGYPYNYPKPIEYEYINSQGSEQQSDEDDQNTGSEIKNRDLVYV
Summary of the method: as §1

YES = target: T31, YES (Homo sapiens, UniProt P07947)
T31 construct: host or cells: E. coli host derived from BL21, T7 phage
Summary of the method: as §1

CAMK1G = target: T32, CAMK1G (Homo sapiens, UniProt Q96NX5)
T32 construct: host or cells: E. coli host derived from BL21
Summary of the method: as §1

MARK1 = target: T33, MARK1 (Homo sapiens, UniProt Q9P0L2)
T33 construct: host or cells: E. coli host derived from the BL21 strain, infected with T7 phage
Summary of the method: as §1

C#Cc1cccc(Nc2ncnc3cc(OC)c(OCCCN4CCOCC4)cc23)c1 [NRC-2694, N-(3-ethynylphenyl)-7-methoxy-6-[3-(4-morpholinyl)propoxy]-4-quinazolinamine]
remaining binding at 10 µM (FLT4): 66% | remaining binding at 10 µM (ANKK1): 73% | remaining binding at 10 µM [1]: 85% | remaining binding at 10 µM (ERK2): 100% | remaining binding at 10 µM (DAPK1): 26% | remaining binding at 10 µM (YSK1): 69% | remaining binding at 10 µM (PDGFRA): 50% | remaining binding at 10 µM (PFTK1): 71% | remaining binding at 10 µM (BTK): 77% | remaining binding at 10 µM (FGFR3(G697C)): 82% | remaining binding at 10 µM (TIE1): 52% | remaining binding at 10 µM (MARK4): 100% | remaining binding at 10 µM (IKK-epsilon): 75% | remaining binding at 10 µM (TLK1): 77% | remaining binding at 10 µM (PIK3CA(E545K)): 100% | remaining binding at 10 µM (IKK-alpha): 41% | remaining binding at 10 µM (BMX): 73% | remaining binding at 10 µM (KIT(V559D, V654A)): 47% | remaining binding at 10 µM (EPHB4): 39% | remaining binding at 10 µM (PDPK1): 94% | remaining binding at 10 µM (MERTK): 48% | remaining binding at 10 µM (MYLK): 62% | remaining binding at 10 µM (YANK3): 100% | remaining binding at 10 µM (MKNK2): 16% | remaining binding at 10 µM (TGFBR1): 83% | remaining binding at 10 µM (EPHB3): 75% | remaining binding at 10 µM (MLCK): 77% | remaining binding at 10 µM (CSNK1A1L): 44% | remaining binding at 10 µM (PAK1): 74% | remaining binding at 10 µM (LATS1): 91% | remaining binding at 10 µM (YES): 41% | remaining binding at 10 µM (CAMK1G): 75% | remaining binding at 10 µM (MARK1): 56%
